In patent US8088605B2, “Exopolysaccharides delivery system for active molecules” (Technologies Biolactics Inc., priority 2002, dated 2012):
Entries after “also recorded” stand apart in the source; their conditions may differ. One block for each molecule: values may come before it.

Legend:
B16 cells [1] = assay: Mice grafted i.p. with B16 cells treated with 5 FU/EPS; type: in vivo, Balb/c mice
Experimental: Tumor cells were trypsinized and washed 3 times with PBS. Cells (1×10E6) were injected i.p. to Balb/c mice to induce a cancer in the peritoneal cavity. […] This highlighting again that EPS are not inert and may contribute to the therapeutic index.

[2] = test system: Caco-2 human colon adenocarcinoma cells in proliferation; assay: Survival of Caco-2 cells in proliferation with 5-Fu and EPS, XTT; type: cell-based; details: four days exposure
Experimental: (§1) The in vitro toxicity of the exopolysaccharide micelles was tested by incubating the micelles with a wide range of cell lines for 4-hour, 8-hour, 72-hour and 96-hour periods. The XTT™ or Alamar Blue™ assays were used to quantify the survival rates in the presence of the exopolysaccharide micelles. The capability of the exopolysaccharide to deliver an active molecule was first tested in vitro using 5-Fluorouracil (5-Fu) as a model active molecule. […] The 5-Fu/exopolysaccharide formulation was incubated with either B16F10 (murine skin melanoma), Caco-2 (human colon adenocarcinoma) or IEC-6 (rat epithelial small intestine) cells over 72-hour to 96-hour. Vital dyes (XTT or Alamar Blue) were added to supernatants for a period of 4 hours. Absorbance values were collected and plotted to evaluate the survival rate of the cells to the treatment.
(§2) Caco-2, IEC-6 and melanocytes B16 cells were cultured in DMEM supplemented with 10% FBS. […] The cells were grown in a CO2 incubator for 4 extra days. Cell survival was assessed with XTT™ according to manufacturers recommendation. […] The data are as follows:
(§3) Percentages of EPS are expressed in (w/v).

[3] = test system: IEC-6 rat normal small intestine epithelial cells; assay: Survival of IEC-6 cells with 5-Fu and EPS, Alamar Blue; type: cell-based; design: unit not given here; details: three days exposure
Experimental: as §1, §2
[NB073]. Percentages of EPS are expressed in (w/v).

[4] = test system: B16F10 murine skin melanoma cells; assay: Survival of B16F10 cells with 5-Fu and EPS, XTT; type: cell-based; details: four days exposure
Experimental: as §1, §2, §3

[5] = test system: Caco-2 human colon adenocarcinoma cells differentiated; assay: Survival of differentiated Caco-2 cells with 5-Fu and EPS, XTT; type: cell-based; details: four days exposure
Experimental: as §1, §2, §3

[6] = Fluorescein pharmacokinetic in rats, oral; type: in vivo, Wistar female rats; design: unit not given here; details: fluorescein 1 mg/kg oral
Experimental: Fluorescein (FL) pharmacolinetic on unfasten Wistar female rats of 200 g and 8 weeks of age. Fluorescein concentration is 1 mg/kg. […] Fluorescein is added to the latter solutions and vortexed. Formulations are fed to the animals with a canula. 200 μl blood samples are collected through the jugular vein every 30 minutes for 2.5 hours. A final bleeding is made at 3.5 h. Plasma are collected immediately after centrifugation (10 min @ 1300 g). Plasma are frozen on dry ice until further analysis: 50 μl of plasma are diluted in 550 μl of saline 0.7% (w/v) and analyzed with a Varian Eclipse Spectrofluorometer (Excitation: 495 nm Emission: 515 nm). Concentrations were determined on a fluorescein standard curve (FL diluted in saline 0.7% and 50 μl of normal serum as in the sample analysis).

B16 cells [7] = assay: Growth in tissue culture of paclitaxel-treated B16 cells; type: cell-based; details: replated after treatment, 2 weeks in culture
Experimental: (§4) Cells (50000 cells per 50 μl injections) for a concentration of 10^6 cells per ml. The remaining of the test was performed as follows: • Cells from 1XT75 (80% confluence) are trypsinized with 2 ml trypsin, diluted in 12 ml media, spun down, rinsed once in 5 ml PBS, and resuspended in 2 ml PBS. Cells are then counted and concentration adjusted to 10^6 cells per ml. • P1 treatment: Add 200 μl P1 stock and […] of cell suspension (10^6 cells) and incubate at room temperature 3 hrs. Final Paclitaxel=1 mM, DMSO=1%. • P2 treatment: Add 200 μl P2 stock to 1.8 ml of cell suspension (10^6 cells) and incubate at room temperature 3 hrs. […] No growth was observed from either group after 2 weeks in culture.

B16 cells [8] = assay: Intramuscular B16 tumor formation after i.m. injection of paclitaxel-treated cells; type: in vivo; details: mice with tumor / mice in group; cells treated 3 hrs before i.m. injection
Experimental: as §4

[9] = Rhodamine 123 pharmacokinetic in rats, oral; type: in vivo, Wistar female rats; details: 5 mg/kg oral
Experimental: The pharmacokinetic of Rhodamine 123 (R123) was performed on unfasten Wistar female rats of 200 g and 8 weeks of age. Rhodamine concentration is 5 mg/kg. […] Rhodamine is added to the latter solutions and vortexed. Formulations are fed to the animals with a canula and 200 μl blood samples are collected through the jugular vein every hour for 4 hours (plus 1 sample at 0.5 h). Plasma are collected immediately after centrifugation (10 min @ 13000 g). Plasma are frozen on dry ice until further analysis: 50 μl of plasma are diluted in 550 μl of saline 0.7% (w/v) and analyzed with a Varian Eclipse™ Spectrofluorometer (Excitation: 505 nm Emission: 540 nm). Concentrations were determined on a Rhodamine 123 standard curve (R123 diluted in saline 0.7% and 50 μl of normal serum as in the sample analysis).

Molecule: O=c1[nH]cc(F)c(=O)[nH]1 [5-Fu alone, 5-Fluorouracil]
- Tumor-free mice (B16 cells [1]; day 0): 100%
- Tumor-free mice (B16 cells [1]; day 15, 5 FU 100 mg/kg, EPS 0.1% w/v, treatment after 4 days): 62.5%
- Tumor-free mice (B16 cells [1]; day 29, 5 FU 100 mg/kg, EPS 0.1% w/v, treatment after 4 days): 12.5%
- Tumor-free mice (B16 cells [1]; day 44, 5 FU 100 mg/kg, EPS 0.1% w/v, treatment after 4 days): 12.5%
- Survival of Caco-2 cells in proliferation ([2]; 5-Fu 1 μg/ml): 74.1 ± 1.9
- Survival of Caco-2 cells in proliferation ([2]; 5-Fu 10 μg/ml): 78.6 ± 2.4
- Survival of Caco-2 cells in proliferation ([2]; 5-Fu 50 μg/ml): 80.3 ± 1.8
- Survival of Caco-2 cells in proliferation ([2]; 5-Fu 100 μg/ml): 52.6 ± 4.8
- Survival of IEC-6 cells ([3]; Table 5, 5-Fu 5 μg/ml): 16.9 ± 6.4
- Survival of IEC-6 cells ([3]; Table 5, 5-Fu 50 μg/ml): 28.0 ± 4.6
- Survival of IEC-6 cells ([3]; Table 5, 5-Fu 250 μg/ml): 35.4 ± 8.2
- Survival of IEC-6 cells ([3]; Table 5, 5-Fu 500 μg/ml): 33.4 ± 3.5
- Survival of IEC-6 cells ([3]; Table 6, 5-Fu 1 μg/ml): 78.0 ± 3.0
- Survival of IEC-6 cells ([3]; Table 6, 5-Fu 10 μg/ml): 75.4 ± 2.9
- Survival of IEC-6 cells ([3]; Table 6, 5-Fu 50 μg/ml): 81.8 ± 2.1
- Survival of IEC-6 cells ([3]; Table 6, 5-Fu 100 μg/ml): 80.2 ± 0.9
- Survival of B16F10 cells ([4]; 5-Fu 1 μg/ml): 62.6 ± 6.6
- Survival of B16F10 cells ([4]; 5-Fu 10 μg/ml): 65.4 ± 10.4
- Survival of B16F10 cells ([4]; 5-Fu 50 μg/ml): 54.9 ± 8.9
- Survival of B16F10 cells ([4]; 5-Fu 100 μg/ml): 38.8 ± 8.5
- Survival of Caco-2 cells differentiated ([5]; 5-Fu 1 μg/ml): 105.7 ± 4.2
- Survival of Caco-2 cells differentiated ([5]; 5-Fu 10 μg/ml): 85.6 ± 8.8
- Survival of Caco-2 cells differentiated ([5]; 5-Fu 50 μg/ml): 99.6 ± 6.8
- Survival of Caco-2 cells differentiated ([5]; 5-Fu 100 μg/ml): 78.1 ± 0.7

- Fluorescein concentration in plasma ([6]; time 0.0 h): 37.10
- Fluorescein concentration in plasma ([6]; time 0.5 h): 218.30
- Fluorescein concentration in plasma ([6]; time 1.0 h): 145.95
- Fluorescein concentration in plasma ([6]; time 1.5 h): 75.25
- Fluorescein concentration in plasma ([6]; time 2.0 h): 74.48
- Fluorescein concentration in plasma ([6]; time 2.5 h): 71.74
- Fluorescein concentration in plasma ([6]; time 3.5 h): 54.63
Molecule: O=C1OC2(c3ccc(O)cc3Oc3cc(O)ccc32)c2ccccc21 [FL-Water, Fluorescein]

Molecule: CC(=O)O[C@H]1C(=O)[C@@]2(C)[C@H]([C@H](OC(=O)c3ccccc3)[C@]3(O)C[C@H](OC(=O)[C@H](O)[C@@H](NC(=O)c4ccccc4)c4ccccc4)C(C)=C1C3(C)C)[C@]1(OC(C)=O)CO[C@@H]1C[C@@H]2O [P1, Paclitaxel]
- Growth in tissue culture (B16 cells [7]): No growth; also recorded: negative
- Intramuscular tumor formation (B16 cells [8]): 12/15

- Rhodamine 123's concentration in plasma ([9]; time 0.0 h): 2.2 ± 2.2 ng/mL
- Rhodamine 123's concentration in plasma ([9]; time 0.5 h): 20.4 ± 2.2 ng/mL
- Rhodamine 123's concentration in plasma ([9]; time 1.0 h): 20.9 ± 2.6 ng/mL
- Rhodamine 123's concentration in plasma ([9]; time 2.0 h): 15.4 ± 2.0 ng/mL
- Rhodamine 123's concentration in plasma ([9]; time 3.0 h): 10.9 ± 1.4 ng/mL
- Rhodamine 123's concentration in plasma ([9]; time 4.0 h): 11.2 ± 1.8 ng/mL
Molecule: Rhodamine 123 [R123 - Water]
